Measurements published in article PMC3961306, “Comparison of the Cancer Gene Targeting and Biochemical Selectivities of All Targeted Kinase Inhibitors Approved for Clinical Use” (PLoS ONE, 2014).
Where two headings read alike, the source gives them in different places.

Key:
[1] = target: panel of more than 300 wild-type and mutant kinases (313 kinase panel) (Homo sapiens, UniProt P00519, E255K); experiment: Kinase profiling in a biochemical assay panel (mobility shift assays and ELISA), %-inhibition at 1 μM; selectivity entropy; conditions: 1 µM
[2] = target: panel of more than 300 wild-type and mutant kinases (313 kinase panel) (Homo sapiens, UniProt P00519); experiment: as above; conditions: 1 µM
[3] = target: panel of more than 300 wild-type and mutant kinases (313 kinase panel) (Homo sapiens, UniProt Q9UM73, R1275Q); experiment: as above; conditions: 1 µM
[4] = target: panel of more than 300 wild-type and mutant kinases (313 kinase panel) (Homo sapiens, UniProt P07947, T348I); experiment: as above; conditions: 1 µM
[5] = target: panel of more than 300 wild-type and mutant kinases (313 kinase panel) (Homo sapiens, UniProt P00533, L861Q); experiment: as above; conditions: kinase EGFR(L861Q); compound at 1 μM
[6] = target: panel of more than 300 wild-type and mutant kinases (313 kinase panel) (Homo sapiens, UniProt P15056, V600E); experiment: as above; conditions: kinase BRAF(V600E); 1 μM compound
[7] = target: panel of more than 300 wild-type and mutant kinases (313 kinase panel) (Homo sapiens, UniProt P11362, V561M); experiment: as above; conditions: kinase FGFR1(V561M); compound at 1 μM
[8] = target: panel of more than 300 wild-type and mutant kinases (313 kinase panel) (Homo sapiens, UniProt P00533, L858R); experiment: as above; conditions: kinase EGFR(L858R); compound at 1 μM
[9] = target: panel of more than 300 wild-type and mutant kinases (313 kinase panel) (Homo sapiens, UniProt P00533, L858R/T790M); experiment: as above; conditions: kinase EGFR(T790M/L858R); compound at 1 μM
[10] = target: panel of more than 300 wild-type and mutant kinases (313 kinase panel) (Homo sapiens, UniProt P00533); experiment: as above; conditions: kinase EGFR; compound at 1 μM
[11] = target: panel of more than 300 wild-type and mutant kinases (313 kinase panel) (Homo sapiens, UniProt P15056); experiment: as above; conditions: kinase BRAF; 1 μM compound
[12] = target: panel of more than 300 wild-type and mutant kinases (313 kinase panel) (Homo sapiens, UniProt P00533, T790M); experiment: as above; conditions: kinase EGFR(T790M); compound at 1 μM
[13] = target: panel of more than 300 wild-type and mutant kinases (313 kinase panel) (Homo sapiens, UniProt P22612); experiment: as above; conditions: kinase PKACγ; 1 μM
[14] = target: panel of more than 300 wild-type and mutant kinases (313 kinase panel) (Homo sapiens, UniProt P35968); experiment: as above; conditions: kinase KDR; compound at 1 μM
[15] = system: forty-four human cancer cell lines; experiment: Cell proliferation assay (ATPlite, 72 hours) in the 44 cell line Oncolines panel; assay type: cell-based; conditions: Homo sapiens

## N#CC[C@H](C1CCCC1)n1cc(-c2ncnc3[nH]ccc23)cn1 [ruxolitinib]
[1]
  %-inhibition, ABL(E255K): 0.0579%
[2]
  %-inhibition, ABL: 5%
[3]
  %-inhibition, ALK(R1275Q): 49%
[4]
  %-inhibition of YES(T348I): 5%
[5]
  %-inhibition of EGFR(L861Q): -3.22%
[6]
  %-inhibition, BRAF(V600E): 6%
[7]
  %-inhibition of FGFR1(V561M): 50%
[8]
  %-inhibition of EGFR(L858R): -4%
[9]
  %-inhibition of EGFR(T790M/L858R): -0.336%
[10]
  %-inhibition of EGFR: -0.278%
[11]
  %-inhibition, BRAF: 14%
[12]
  %-inhibition of EGFR(T790M): -8%
[13]
  %-inhibition of PKACγ: 11%
[14]
  %-inhibition of KDR: 6.52%
[15]; 4-4 cell, read-out: cell panel IC50, J82
  IC50: > 31.6 µM
[15]; 4-4 cell, read-out: cell panel IC50, PA-1
  IC50: 26.9 µM
[15]; 4-4 cell, read-out: cell panel IC50, SJCRH30
  IC50: 25.4 µM
[15]; 4-4 cell, read-out: cell panel IC50, SR
  IC50: 4.44 µM
[15]; 769-P, read-out: cell panel IC50, 769-P
  IC50: 18.4 µM
[15]; 786-0, read-out: cell panel IC50, 786-0
  IC50: > 31.6 µM
[15]; A 172, read-out: cell panel IC50, A-172
  IC50: 31.5 µM
[15]; A204, read-out: cell panel IC50, A-204
  IC50: > 31.6 µM
[15]; A498, read-out: cell panel IC50, A-498
  IC50: > 31.6 µM
[15]; A549, read-out: cell panel IC50, A-549
  IC50: 21.9 µM
[15]; A-375, read-out: cell panel IC50, A375
  IC50: > 31.6 µM
[15]; A-427, read-out: cell panel IC50, A-427
  IC50: 11.7 µM
[15]; ACHN, read-out: cell panel IC50, ACHN
  IC50: > 31.6 µM
[15]; AN3-CA, read-out: cell panel IC50, AN3 CA
  IC50: 9.88 µM
[15]; AU565, read-out: cell panel IC50, AU-565
  IC50: 28.3 µM
[15]; BT-20, read-out: cell panel IC50, BT-20
  IC50: > 31.6 µM
[15]; BT-549, read-out: cell panel IC50, BT-549
  IC50: > 31.6 µM
[15]; BXPC-3, read-out: cell panel IC50, BxPC-3
  IC50: 16.2 µM
[15]; C-33-A, read-out: cell panel IC50, C-33 A
  IC50: 9.4 µM
[15]; CAL-27, read-out: cell panel IC50, CAL 27
  IC50: > 31.6 µM
[15]; CCRF-CEM, read-out: cell panel IC50, CCRF-CEM
  IC50: 29 µM
[15]; DLD-1, read-out: cell panel IC50, DLD-1
  IC50: 31.1 µM
[15]; FaDu, read-out: cell panel IC50, FaDu
  IC50: > 31.6 µM
[15]; HCT-15, read-out: cell panel IC50, HCT-15
  IC50: 25.3 µM
[15]; HCT-116, read-out: cell panel IC50, HCT-116
  IC50: 30 µM
[15]; Hs-578T, read-out: cell panel IC50, Hs 578T
  IC50: > 31.6 µM
[15]; Jurkat E6.1, read-out: cell panel IC50, Jurkat E6.1
  IC50: 21.5 µM
[15]; K562, read-out: cell panel IC50, K-562
  IC50: 26.4 µM
[15]; LS174T, read-out: cell panel IC50, LS 174T
  IC50: 30.8 µM
[15]; LoVo, read-out: cell panel IC50, LoVo
  IC50: 24.4 µM
[15]; MG-63, read-out: cell panel IC50, MG-63
  IC50: 26.2 µM
[15]; MOLT-4, read-out: cell panel IC50, MOLT-4
  IC50: 21.8 µM
[15]; MeWo, read-out: cell panel IC50, MeWo
  IC50: > 31.6 µM
[15]; NCI-H82, read-out: cell panel IC50, NCI-H82
  IC50: 21 µM
[15]; NCI-H460, read-out: cell panel IC50, NCI-H460
  IC50: 27 µM
[15]; OVCAR-3, read-out: cell panel IC50, OVCAR-3
  IC50: > 31.6 µM
[15]; RPMI-7951, read-out: cell panel IC50, RPMI-7951
  IC50: 15.6 µM
[15]; SHP77, read-out: cell panel IC50, SHP-77
  IC50: 31.2 µM
[15]; SK-N-AS, read-out: cell panel IC50, SK-N-AS
  IC50: 21.1 µM
[15]; SW48, read-out: cell panel IC50, SW48
  IC50: 19.5 µM
[15]; SW480, read-out: cell panel IC50, SW480
  IC50: > 31.6 µM
[15]; SW-620, read-out: cell panel IC50, SW620
  IC50: 28.4 µM
[15]; U2OS, read-out: cell panel IC50, U-2 OS
  IC50: 25.1 µM
[15]; U-87 MG, 72 h, read-out: IC50 in cell proliferation assay (table S5 cellpanel data)
  IC50: > 31.6 µM
